Reference: patent US6034092A, “2-[2-[(2-hydroxyethyl)amino]ethy [ l]-5-[[2-methylamino)ethyl]amino]indazolo4,3-gh]isoquinolin-6(2H)-one as antitumor agent” (priority 1995, dated 2000)
In brackets after ≈: the same amount, converted by molar mass. Read-outs that look alike come from different tables or passages of the source.

Key:
[1] = test system: human colon adenocarcinoma cell line (LoVo); assay: in vitro cytotoxic activity, MTT assay, LoVo; type: cell-based; details: for IC50: Homo sapiens, read-out: IC50 ± S.D.
Method: (§1) The evaluation of the biological activity for the compound of this invention was performed "in vitro" and "in vivo" following the protocols developed by the U.S. National Cancer Institute.
The evaluation of the "in vitro" cytotoxic activity was performed using a human colon adenocarcinoma cell line (Lovo) isolated from a metastatic nodule.

human breast MX-1 tumor = assay: in vivo human breast tumor xenograft MX-1 in mice, sc/iv; details: MX-1 sc/iv q7dx3
Method: as §1
(§2) Further in vivo studies of biological activity of the compound of the invention were carried out using two human tumor xenografts, the human breast MX-1 tumor and the ovary tumor A2780 (Table II). […] The "tumor weight inhibition" can be evaluated as follows:
(§3) TWI%=100-[(average relative weight of the tumortreated /average
(§4) relative weight of the tumorcontrols)100]
(§5) By tumor regression, it is meant the reduction of the tumor mass measured 30 days after the end of the treatment compared with the tumor starting weight. Complete tumor regression means the disappearance of the tumor mass.
(§6) In vivo biological evaluation of the compound of the invention (I),
(§7) and A 2780) models in mice

[2] = test system: cell histotypes developing resistance already against doxorubicin; details: doxorubicin-resistant cell histotypes, over-expression of glycoprotein P; cited from earlier work
[3] = limiting aspect; cited from earlier work
P388 murine leukemia = assay: in vivo P388 murine leukemia model, iv/iv; details: for survival time of the treated animals (in words): P388, compared with controls (untreated animals) or with analogues
Method: as §1
Treatment was initiated approximately 24 hours after tumor transplantation and dosages of the product were administered iv according to preestablished protocols, usually at 3-day intervals. The studies were done over a 60 day period and the date of death for each animal was recorded. The % T/C was determined using the median survival time (MST) for each group according to the formula
T/C%=[(MSTtreated)/(MSTcontrols)]×100

ovary tumor A2780 = assay: in vivo human ovary tumor xenograft A2780 in mice, sc/iv; details: A 2780 sc/iv q4dx3; for Tumor regression: 30 days after end of treatment
Method: as §1, §2, §3, §4, §5, §6, §7

[4] = test system: human breast MX-1 tumor and the ovary tumor A2780; assay: in vivo antitumor evaluation in human tumor xenografts MX-1 and A2780; parameters: species or system human tumor xenografts in mice; details: for complete tumor regressions (in words): contrary to CI-941
Method: as §2, §3, §4, §5

[5] = rat; cited from earlier work
[6] = man; cited from earlier work
[7] = W.H.O. grade; dose-limiting, phase I and II; cited from earlier work
[8] = 1 hour after treatment with the medicament

SMILES: O=C1c2c(O)ccc(O)c2C(=O)c2c(NCCNCCO)ccc(NCCNCCO)c21 [mitoxantrone, 5,8-dihydroxy-1,4-bis{[2-(2-hydroxyethylamino)ethyly]amino]anthracene-9,10-dione]
- IC50 [1, 8]: 0.026 ± 0.017 µg/mL (≈ 0.0585 µM)
- TWI % (human breast MX-1 tumor; 4.5 mg/kg): 74%
- cross-resistance [2]: cross-resistance
- toxicity (cardiotoxicity) [3]: cardiotoxicity
- toxicity (myelodepression) [3]: mielodepressive toxic effect
- T/C % (P388 murine leukemia; P388 iv/iv + 1,4,7, 3 mg/kg): 195%
- Tox. (P388 murine leukemia; P388 iv/iv + 1,4,7, 3 mg/kg): 16/284

SMILES: CNCCNc1ccc2c3c(nn2CCNCCO)-c2cnccc2C(=O)c13 [compound (I)]
- IC50 [1, 8]: 0.54 ± 0.17 µg/mL (≈ 1.42 µM)
- in vitro cytotoxic activity (in words) ([1]; MTT assay, compared with doxorubicin): activity comparable to doxorubicin
- TWI % (human breast MX-1 tumor; 8.9 mg/kg): 78%
- Tox. (human breast MX-1 tumor; 8.9 mg/kg): 0/5
- TWI % (human breast MX-1 tumor; 17.5 mg/kg): 96%
- Tox. (human breast MX-1 tumor; 17.5 mg/kg): 0/5
- TWI % (ovary tumor A2780; 7.5 mg/kg): 99%
- Tox. (ovary tumor A2780; 7.5 mg/kg): 0/7
- Tumor regression (ovary tumor A2780; 7.5 mg/kg): 4/7
- TWI % (ovary tumor A2780; 9.7 mg/kg): 100%
- Tox. (ovary tumor A2780; 9.7 mg/kg): 0/7
- Tumor regression (ovary tumor A2780; 9.7 mg/kg): 6/7
- tumor weight inhibition (in words) ([4]; MX-1 and A2780 xenografts, compared with CI-941): activity equal if not higher than CI-941
- toxic effects (in words) ([4]; tested doses): absence of toxic effects
- complete tumor regressions (in words) ([4]; tested doses, listed as 2-[2-[(2-hydroxyethyl)amino]ethyl]-5-[[2-(methylamino)ethyl]amino]indazolo[4,3-g): complete regression of the tumor in a statistically significant number of animals
- complete tumor regressions (in words) ([4]; tested doses, listed as compound of the invention): a significant number of complete tumor regressions
- survival time of the treated animals (in words) (P388 murine leukemia; listed as 2-[2-[(2-hydroxyethyl)amino]ethyl]-5-[[2-(methylamino)ethyl]amino]indazolo[4,3-g): higher increase in the average survival time of the treated animals (expressed as % T/C) than that obtained with its analogues
- survival time of the treated animals (in words) (P388 murine leukemia; listed as compound of the invention): active in increasing the survival time of the treated animals
- T/C % (P388 murine leukemia; P388 iv/iv + 1,4,7, 7.5 mg/kg): 167%
- tolerability (in words) (P388 murine leukemia; compared with mitoxantrone, Table II): better tolerated than mitoxantrone
- Tox. (P388 murine leukemia; mouse, in vivo, iv, 7.5 mg/kg): 0/8

SMILES: COc1cccc2c1C(=O)c1c(O)c3c(c(O)c1C2=O)C[C@@](O)(C(=O)CO)C[C@@H]3O[C@H]1C[C@H](N)[C@H](O)[C@H](C)O1 [doxorubicin]
- IC50 ([1]; 1 h): 0.7 ± 0.49 µg/mL (≈ 1.29 µM)

SMILES: O=C1c2c(O)cccc2-c2nn(CCNCCO)c3ccc(NCCNCCO)c1c23 [CI-941]
- nephrotoxicity [5]: marked nephrotoxicity
- IC50 ([1]; 1 h): 0.039 ± 0.035 µg/mL (≈ 0.0917 µM)
- TWI % (human breast MX-1 tumor; 9 mg/kg): 83%
- Tox. (human breast MX-1 tumor; 9 mg/kg): 0/7
- TWI % (human breast MX-1 tumor; 13.5 mg/kg): 93%
- Tox. (human breast MX-1 tumor; 13.5 mg/kg): 0/40
- TWI % (human breast MX-1 tumor; 17.5 mg/kg): 97%
- Tox. (human breast MX-1 tumor; 17.5 mg/kg): 9/33
- cardiotoxicity [6]: irreversible cardiotoxicity
- TWI % (ovary tumor A2780; 8 mg/kg): 87%
- Tox. (ovary tumor A2780; 8 mg/kg): 0/7
- Tumor regression (ovary tumor A2780; 8 mg/kg): 0/7
- TWI % (ovary tumor A2780; 10.4 mg/kg): 97%
- Tox. (ovary tumor A2780; 10.4 mg/kg): 0/7
- Tumor regression (ovary tumor A2780; 10.4 mg/kg): 0/7
- TWI % (ovary tumor A2780; 13.5 mg/kg): 100%
- Tox. (ovary tumor A2780; 13.5 mg/kg): 5/7
- Tumor regression (ovary tumor A2780; 13.5 mg/kg): 1/7
- T/C % (P388 murine leukemia; P388 iv/iv + 1,4,7, 6 mg/kg): 133%
- Tox. (P388 murine leukemia; P388 iv/iv + 1,4,7, 6 mg/kg): 0/8
- T/C % (P388 murine leukemia; P388 iv/iv + 1,4,7, 9 mg/kg): 144%
- Tox. (P388 murine leukemia; P388 iv/iv + 1,4,7, 9 mg/kg): 0/8
- T/C % (P388 murine leukemia; P388 iv/iv + 1,4,7, 13.5 mg/kg): 133%
- Tox. (P388 murine leukemia; P388 iv/iv + 1,4,7, 13.5 mg/kg): 0/8
- leukopenia [7]: severe leukopenia (W.H.O. grade 3 and 4)
- neutropenia [7]: neutropenia (W.H.O. grade 4)

SMILES: O=C1c2ccccc2C(=O)c2c(NCCNCCO)ccc(NCCNCCO)c21 [ametantrone, 4-bis{[2-(2-hydroxyethylamino)ethyl]amino]anthracene-9,10-dione]
- cross-resistance [2]: cross-resistance
- toxicity (myelodepression) [3]: mielodepressive toxic effect
